Like-named read-outs stand apart in the source and are kept apart here.
Assays:
[1] = target: T1, recombinant soluble tissue factor and recombinant human factor VIIa (TF-VIIa) (Homo sapiens, UniProt P08709); assay: TF-VIIa Assay; format: biochemical
T1 construct: conversion of coagulation factor VII to VIIa by Xa; purchased American Diagnostica, Greenwich Conn; host or cells: factor VIIa purchased; soluble TF made in house in E. coli

Human factor Xa = target: T2, Human factor Xa (Homo sapiens, UniProt P00742); assay: Xa Assay; format: biochemical; details: for % Inhibition Factor Xa (30 µM): at 30 µM; for IC50: cells without % sign
T2 construct: Human factor Xa (0.3 nM); purchased Enzyme Research Laboratories, South Bend Ind
T2 sequence (P00742 235-488 limits assumed): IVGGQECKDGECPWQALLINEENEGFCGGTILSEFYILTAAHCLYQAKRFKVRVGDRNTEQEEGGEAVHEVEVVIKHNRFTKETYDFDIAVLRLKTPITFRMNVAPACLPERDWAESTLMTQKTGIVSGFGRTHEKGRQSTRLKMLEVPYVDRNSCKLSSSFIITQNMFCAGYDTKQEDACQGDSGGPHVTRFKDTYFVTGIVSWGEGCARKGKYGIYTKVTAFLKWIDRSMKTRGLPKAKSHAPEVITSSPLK
T2 sequence (P00742 41-179 limits assumed): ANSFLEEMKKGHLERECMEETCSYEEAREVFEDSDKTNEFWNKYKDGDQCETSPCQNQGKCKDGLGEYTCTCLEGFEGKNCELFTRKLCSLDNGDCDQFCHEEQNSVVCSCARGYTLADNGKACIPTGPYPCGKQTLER

[2] = target: T3, Trypsin (type 1× from porcine pancreas) (Sus scrofa, UniProt P00761); assay: Trypsin Assay; format: biochemical
T3 construct: Trypsin (5 ug/ml; type 1× from porcine pancreas); purchased Sigma, St. Louis Mo; host or cells: porcine pancreas
T3 sequence (P00761 9-231): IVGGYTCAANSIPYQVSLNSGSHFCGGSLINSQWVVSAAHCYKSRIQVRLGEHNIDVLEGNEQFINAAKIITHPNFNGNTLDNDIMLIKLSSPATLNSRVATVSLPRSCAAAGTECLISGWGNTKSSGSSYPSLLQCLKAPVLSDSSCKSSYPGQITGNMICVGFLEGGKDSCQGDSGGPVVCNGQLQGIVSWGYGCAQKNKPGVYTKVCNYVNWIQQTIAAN

Human thrombin [3] = target: T4, Human thrombin (Homo sapiens, UniProt P00734); assay: biochemical
Human thrombin [4] = target: T4, Human thrombin
[5] = cells without % sign, read-out: IC50 TF-VIIa
[6] = cells without % sign, read-out: IC50 Trypsin II

T1 sequence (P08709 213-466 limits assumed): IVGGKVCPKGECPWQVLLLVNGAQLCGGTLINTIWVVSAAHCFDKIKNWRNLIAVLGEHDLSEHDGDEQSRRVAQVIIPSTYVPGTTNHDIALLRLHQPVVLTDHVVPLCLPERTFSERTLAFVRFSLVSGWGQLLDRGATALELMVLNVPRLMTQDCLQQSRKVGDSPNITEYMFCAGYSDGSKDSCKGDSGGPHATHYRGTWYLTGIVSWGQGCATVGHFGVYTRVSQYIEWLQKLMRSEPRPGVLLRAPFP
T1 sequence (P08709 61-212 limits assumed): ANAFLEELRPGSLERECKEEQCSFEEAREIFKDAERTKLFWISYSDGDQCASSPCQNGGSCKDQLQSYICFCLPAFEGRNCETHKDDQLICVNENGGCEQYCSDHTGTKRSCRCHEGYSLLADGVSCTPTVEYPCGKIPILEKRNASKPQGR
T1 sequence (P13726 33-251 partner limits assumed): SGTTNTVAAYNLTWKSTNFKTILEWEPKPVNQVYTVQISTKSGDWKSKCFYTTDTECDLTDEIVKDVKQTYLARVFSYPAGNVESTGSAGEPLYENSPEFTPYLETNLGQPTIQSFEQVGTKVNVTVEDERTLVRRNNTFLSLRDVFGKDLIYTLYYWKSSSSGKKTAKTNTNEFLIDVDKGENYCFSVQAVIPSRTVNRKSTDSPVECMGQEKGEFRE

N=C(N)c1ccc(CNC(=O)Cn2c(-c3cccc(N)c3)c(Cl)nc(NC(CC(=O)O)c3ccccc3)c2=O)cc1 (racemic) [Example 131]
IC50 ([1]; read-out: IC50 TF-VIIa, cell printed 'at 100 μM', cell adds 'at 100 μM'): 140 nM
% Inhibition Factor Xa at 100 μM (Human factor Xa): 21% at
IC50 ([2]; read-out: IC50 Trypsin II, cell printed 'at 100 μM', cell adds 'at 100 μM'): 48 nM

COCC(C)Nc1nc(Cl)c(-c2ccccc2)n(CC(=O)NCc2ccc(C(=N)N)cc2)c1=O (stereo not drawn) [1512-07]
IC50 ([1]; read-out: IC50 TF-VIIa): 3600 nM
% Inhibition Factor Xa (30 µM) (Human factor Xa): 4%

CCC(C)(C)Nc1nc(Cl)c(-c2cccc(N)c2)n(CC(=O)NCc2ccc(C(=N)N)cc2)c1=O [1526-06]
IC50 [1, 5]: 170 nM
IC50 (Human factor Xa): > 30 µM
IC50 [2, 6]: 210 nM

CC(C)CC(C)Nc1nc(Cl)c(-c2cccc(N)c2)n(CC(=O)NCc2ccc(C(=N)N)cc2)c1=O (stereo not drawn) [1526-17]
IC50 [1, 5]: 80 nM
IC50 (Human factor Xa): > 30 µM
IC50 [2, 6]: 170 nM

N=C(N)c1ccc(CNC(=O)Cn2c(-c3cccc(N)c3)c(Cl)nc(NC3CC4CCC3C4)c2=O)cc1 (stereo not drawn) [1526-30]
IC50 [1, 5]: 80 nM
IC50 (Human factor Xa): > 30 µM
IC50 [2, 6]: 200 nM

N=C(N)c1ccc(CNC(=O)Cn2c(-c3cccc(N)c3)c(Cl)nc(NCCCCCC(N)=O)c2=O)cc1 [1543-11]
IC50 [1, 5]: 70 nM
% Inhibition Factor Xa (30 µM) (Human factor Xa; cells with % sign, and bare 0): 24%
IC50 [2, 6]: 40 nM

CCN(CC)CC(C)Nc1nc(Cl)c(-c2cccc(N)c2)n(CC(=O)NCc2ccc(C(=N)N)cc2)c1=O (stereo not drawn) [1543-25]
IC50 [1, 5]: 280 nM
% Inhibition Factor Xa (30 µM) (Human factor Xa; cells with % sign, and bare 0): 26%
IC50 [2, 6]: 50 nM

Nc1cccc(-c2c(Cl)nc(NC3CCC3)c(=O)n2CC(=O)N2CCC3(CC2)OCCO3)c1 [1543-41]
% Inhibition TF-VIIa (30 µM) ([1]; at 30 µM, cells with % sign): 3%
% Inhibition Factor Xa (30 µM) (Human factor Xa; cells with % sign, and bare 0): 9%
% Inhibition Trypsin II (30 µM) ([2]; at 30 µM, cells with % sign): 6%

CC(C)Nc1nc(Cl)c(-c2cc(N)cc(C(=O)NCc3ccc(Cl)cc3Cl)c2)n(CC(=O)NCc2ccc(C(=N)N)cc2)c1=O [Example 128-5]
% Inhibition Factor Xa at 100 μM (Human factor Xa): 43% at

CC(C)Nc1nc(Cl)c(-c2cc(N)cc(C(=O)NCc3ccc(Br)cc3)c2)n(CC(=O)NCc2ccc(C(=N)N)cc2)c1=O [Example 128-8]
% Inhibition Factor Xa at 100 μM (Human factor Xa): 44% at

CC(CC(=O)O)Nc1nc(Cl)c(-c2cccc(N)c2)n(CC(=O)NCc2ccc(C(=N)N)cc2)c1=O (stereo not drawn) [Example 130]
% Inhibition Factor Xa at 100 μM (Human factor Xa): 24% at

C[C@H](Nc1nc(Cl)c(-c2cccc(N)c2)n(CC(=O)NCc2ccc(C(=N)N)cc2)c1=O)C(=O)O [Example 135]
% Inhibition Factor Xa at 100 μM (Human factor Xa): 6% at

N=C(N)c1ccc(C(=O)NCCn2c(-c3cccc(N)c3)c(Cl)nc(NC3CCC3)c2=O)cc1 [Example 136]
IC50 (Human thrombin [3]): > 30 µM

CC(C(=O)NCc1ccc(C(=N)N)cc1)n1c(-c2ccccc2)c(Cl)nc(NCc2ccccc2)c1=O (stereo not drawn) [Example 1517-03]
IC50 [1, 5]: 9000 nM
% Inhibition Factor Xa (30 µM) (Human factor Xa; cells with % sign, and bare 0): 0%
IC50 [2, 6]: 2000 nM

CC(C(=O)NCc1ccc(C(=N)N)cc1)n1c(-c2ccccc2)c(Cl)nc(NCc2ccccc2)c1=O (stereo not drawn) [Example 1517-05]
IC50 [1, 5]: 4600 nM
% Inhibition Factor Xa (30 µM) (Human factor Xa; cells with % sign, and bare 0): 0%
IC50 [2, 6]: 1200 nM

CC(C(=O)NCc1ccc(C(=N)N)cc1)n1c(-c2ccccc2)c(Cl)nc(NC2CCC2)c1=O (stereo not drawn) [Example 1517-09]
IC50 [1, 5]: 2600 nM
% Inhibition Factor Xa (30 µM) (Human factor Xa; cells with % sign, and bare 0): 0%
IC50 [2, 6]: 1500 nM

CC(C(=O)NCc1ccc(C(=N)N)cc1)n1c(-c2ccccc2)c(Cl)nc(NC2CCC2)c1=O (stereo not drawn) [Example 1517-11]
IC50 [1, 5]: 3000 nM
% Inhibition Factor Xa (30 µM) (Human factor Xa; cells with % sign, and bare 0): 0%
IC50 [2, 6]: 1900 nM

CC(C(=O)NCc1ccc(C(=N)N)cc1)n1c(-c2ccccc2)c(Cl)nc(NCCc2ccccc2)c1=O (stereo not drawn) [Example 1517-15]
IC50 [1, 5]: 3100 nM
% Inhibition Factor Xa (30 µM) (Human factor Xa; cells with % sign, and bare 0): 0%
IC50 [2, 6]: 1500 nM

CC(C(=O)NCc1ccc(C(=N)N)cc1)n1c(-c2ccccc2)c(Cl)nc(NCCc2ccccc2)c1=O (stereo not drawn) [Example 1517-17]
IC50 [1, 5]: 1800 nM
% Inhibition Factor Xa (30 µM) (Human factor Xa; cells with % sign, and bare 0): 0%
IC50 [2, 6]: 850 nM

CC(C(=O)NCc1ccc(C(=N)N)cc1)n1c(-c2ccccc2)c(Cl)nc(NCCc2cccc(Cl)c2)c1=O (stereo not drawn) [Example 1517-23]
IC50 [1, 5]: 2300 nM
% Inhibition Factor Xa (30 µM) (Human factor Xa; cells with % sign, and bare 0): 0%
IC50 [2, 6]: 1400 nM

O=C(Cn1c(-c2ccc(-c3ccccc3)cc2)c(Cl)nc(NCCc2cccnc2)c1=O)NCCc1ccncc1 [Example E-0053]
% Inhibition TF-VIIa (100 νM) [1]: 0%
% Inhibition Trpysin II (100 νM) [2]: 0%
% Inhibition Thrombin II (100 νM) (Human thrombin [4]): 0%

O=C(Cn1c(-c2ccc(-c3ccccc3)cc2)c(Cl)nc(NCCc2ccncc2)c1=O)NCCc1ccncc1 [Example E-0054]
% Inhibition Thrombin II (100 νM) (Human thrombin [4]): 0%

O=C(Cn1c(-c2ccc(-c3ccccc3)cc2)c(Cl)nc(NCCN2CCOCC2)c1=O)NCCc1ccncc1 [Example E-0055]
% Inhibition TF-VIIa (100 νM) [1]: 0%
% Inhibition Trpysin II (100 νM) [2]: 0%
% Inhibition Thrombin II (100 νM) (Human thrombin [4]): 0%

O=C(Cn1c(-c2ccc(-c3ccccc3)cc2)c(Cl)nc(NCc2ccncc2)c1=O)NCCc1ccncc1 [Example E-0056]
% Inhibition TF-VIIa (100 νM) [1]: 0%
% Inhibition Trpysin II (100 νM) [2]: 0%
% Inhibition Thrombin II (100 νM) (Human thrombin [4]): 0%

COc1ccc(-c2c(Cl)nc(NCc3ccccc3)c(=O)n2CC(=O)NCCc2cccnc2)cc1 [Example E-0098]
% Inhibition TF-VIIa (100 νM) ([1]; inhibitor at 100 νM): 0%
% Inhibition Trpysin II (100 νM) ([2]; inhibitor at 100 νM): 8%

COc1ccc(-c2c(Cl)nc(NCCc3cccc(Cl)c3)c(=O)n2CC(=O)NCCc2ccncc2)cc1 [Example E-0103]
% Inhibition TF-VIIa (100 νM) ([1]; inhibitor at 100 νM): 2%
% Inhibition Trpysin II (100 νM) ([2]; inhibitor at 100 νM): 11%

COc1ccc(-c2c(Cl)nc(NCCc3cccc(Cl)c3)c(=O)n2CC(=O)NCCc2cccnc2)cc1 [Example E-0104]
% Inhibition TF-VIIa (100 νM) ([1]; inhibitor at 100 νM): 3%
% Inhibition Trpysin II (100 νM) ([2]; inhibitor at 100 νM): 9%

COc1ccc(-c2c(Cl)nc(NCCc3ccc(Cl)cc3)c(=O)n2CC(=O)NCCc2ccncc2)cc1 [Example E-0106]
% Inhibition TF-VIIa (100 νM) ([1]; inhibitor at 100 νM): 5%
% Inhibition Trpysin II (100 νM) ([2]; inhibitor at 100 νM): 9%

COc1ccc(-c2c(Cl)nc(NCCc3ccc(Cl)cc3)c(=O)n2CC(=O)NCCc2cccnc2)cc1 [Example E-0107]
% Inhibition TF-VIIa (100 νM) ([1]; inhibitor at 100 νM): 4%
% Inhibition Trpysin II (100 νM) ([2]; inhibitor at 100 νM): 12%

O=C(Cn1c(-c2ccc(-c3ccccc3)cc2)c(Cl)nc(NCc2ccccc2)c1=O)NCCc1ccncc1 [Example E-0109]
% Inhibition TF-VIIa (100 νM) [1]: 2%
% Inhibition Trpysin II (100 νM) [2]: 12%

O=C(Cn1c(-c2ccc(-c3ccccc3)cc2)c(Cl)nc(NCc2ccccc2)c1=O)NCCc1cccnc1 [Example E-0110]
% Inhibition TF-VIIa (100 νM) [1]: 0%
% Inhibition Thrombin II (100 νM) (Human thrombin [4]): 0%

O=C(Cn1c(-c2ccc(-c3ccccc3)cc2)c(Cl)nc(NCCc2ccccc2)c1=O)NCCc1ccncc1 [Example E-0112]
% Inhibition TF-VIIa (100 νM) [1]: 11%
% Inhibition Trpysin II (100 νM) [2]: 13%

O=C(Cn1c(-c2ccc(-c3ccccc3)cc2)c(Cl)nc(NCCc2cccc(Cl)c2)c1=O)NCCc1cccnc1 [Example E-0116]
% Inhibition Trpysin II (100 νM) [2]: 10%
% Inhibition Thrombin II (100 νM) (Human thrombin [4]): 0%

O=C(Cn1c(-c2ccc(-c3ccccc3)cc2)c(Cl)nc(NCCc2ccc(Cl)cc2)c1=O)NCCc1ccncc1 [Example E-0118]
% Inhibition TF-VIIa (100 νM) [1]: 12%
% Inhibition Trpysin II (100 νM) [2]: 9%

O=C(Cn1c(-c2ccc(-c3ccccc3)cc2)c(Cl)nc(NCCc2ccc(Cl)cc2)c1=O)NCCc1cccnc1 [Example E-0119]
% Inhibition Trpysin II (100 νM) [2]: 10%
% Inhibition Thrombin II (100 νM) (Human thrombin [4]): 0%

Reference: patent publication US7119094B1, “Substituted polycyclic aryl and heteroarpyl pyrazinones useful for selective inhibition of the coagulation cascade” (Warner-Lambert Company, priority 2000, dated 2006)
